The text below walks through data of publication PMC5063506, “A Novel Class of Small Molecule Agonists with Preference for Human over Mouse TLR4 Activation” (PLoS ONE, 2016).

For series [1], the system named is hTLR4/MD2 KIKO mice. Put plainly: In vivo serum cytokines in hTLR4/MD2 KIKO mice. The arrangement: species or system mouse. The conditions noted are these: 50 μg IP, serum at 2 h and 6 h. From the text: (§1) The humanized TLR4/MD-2 mice, described in detail in [15], express human TLR4 and human MD-2 from bacterial artificial chromosome transgenes that were bred to the mouse TLR4/MD-2 double-knockout (DKO) on a C57BL/6J background. Because the hMD-2 BAC transgene is integrated on the Y-chromosome, only male mice were used in the study. Generally, hMD-2 BAC+ males are bred to hTLR4 BAC+ females (both on DKO background) and male pups were screened for the presence of hTLR4 BAC. Double positives served as the fully humanized TLR4/MD-2 mice and hTLR4 BAC negative mice served as functional KO. Wild-type C57BL/6 mice were bred in parallel. All breeding was performed in an SPF facility at the University of Washington and all protocols were approved by the University of Washington IACUC. For in vivo cytokines, mice were injected intraperitoneally with 50 μg of either AZ618 or MPL in 0.2 ml PBS. Mice were bled from the retroorbital sinus 2 h after injection and terminal cardiocentesis was performed at 6 h for the second blood sample. Serum samples were analyzed via MILLIPLEX kits (EMD Millipore).
(§2) C57BL/6 mice (6–12 per group) were immunized IP with 50 μg MPL or AZ618 and then were bled at 2 h via retro-orbital route and at 6 h via cardiac puncture. Serum was analyzed by multiplex Millipore kits for cytokine content. […]

Series [2] concerns wild-type C57BL/6 mice. Put plainly: In vivo serum cytokines in wild-type C57BL/6 mice. The arrangement: species or system mouse. As to conditions: 50 μg IP, serum at 2 h (IL-12 p40, IL-6) and 6 h (IL-12 p40, MIG, RANTES).
Excerpt: as §1, §2

A short description of series [3]: Solubility by dissolution of solid samples in buffer. It counts as physicochemical. The conditions noted are these: aqueous buffer, thermodynamic from solid; solid samples in buffer at pH 7.4. An excerpt: Fig 2 Optimization stages of Ugi products as TLR4 agonists. *Human TLR-4 NFκB SEAP reporter assays; protocol as described in Methods. Data are reported as pEC50, or negative log of the EC50 values. **Clint rh / hm represents intrinsic clearance in presence of rat hepatocytes (μL/min/10^6 cells) and human microsomes (μL/min/mg protein). […] Thus a drug molecule with LogD >4 might be considered to be very lipophilic and therefore more likely to suffer from rapid metabolic turnover, poor solubility and receptor promiscuity; whereas a LogD range of 1–3 is more likely to be associated with optimal physicochemical and drug-like properties. ^††Solubility was measured by dissolution of solid samples in buffer at pH 7.4.

SMILES strings stand for the structures. ≈ marks a conversion by molar mass, not a printed value.

On to `Cc1cc(C)cc(N(C(=O)c2cc(-c3ccccc3)n(-c3ccccc3)n2)C(C(=O)NC2CCCC2)c2ccc(CC(=O)O)cc2)c1` (stereo not drawn) [AZ618, 2-(4-(2-(cyclopentylamino)-1-(N-(3,5-dimethylphenyl)-1,5-diphenyl-1H-pyrazole-3-carboxamido)-2-oxoethyl)phenyl)acetic acid], for which the “serum cytokine induction in hTLR4/MD2 KIKO mice” value in series [1] is listed as “induced a very similar pattern of cytokines”. Besides, the “serum cytokine induction in wild-type C57BL/6 mice” value in series [2] was “not AZ618 induced”.
A word on the solubility: it is the concentration that dissolves in the medium under given conditions. Lower therefore signals a poorly soluble substance. On to `O=C(O)Cc1ccc(C(C(=O)NC2CCCC2)N(C(=O)c2cc(-c3ccccc3)n(-c3ccccc3)n2)c2ccc3c(c2)CCC3)cc1` (stereo not drawn) [AZ617], for which the solubility in series [3] stood at 129 µM (≈ 82.4 µg/mL).
